Test results taken from patent US20120329837A1, “CATHEPSIN INHIBITORS FOR TREATING MICROGLIA-MEDIATED NEURON LOSS IN THE CENTRAL NERVOUS SYSTEM” (ViroBay, Inc., priority 2011, published 2012).

Each molecule was assayed against T1, Human cathepsin S (Homo sapiens, UniProt P25774) (assay: Cathepsin S Assay (Z-Val-Val-Arg-AMC hydrolysis)). Settings: Table 2; Enzyme CatS.
Format: biochemical

T1 sequence (P25774 115-331): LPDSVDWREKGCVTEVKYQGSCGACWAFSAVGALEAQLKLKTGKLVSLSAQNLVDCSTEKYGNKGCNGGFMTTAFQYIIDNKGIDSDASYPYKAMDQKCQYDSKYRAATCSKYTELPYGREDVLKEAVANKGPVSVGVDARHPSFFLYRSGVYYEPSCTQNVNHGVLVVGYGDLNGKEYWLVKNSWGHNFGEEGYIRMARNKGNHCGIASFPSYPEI

SMILES | IC50 [nM]
N#CC1(NC(=O)[C@H](CC(F)(F)CC2CC2)N[C@@H](c2ccccc2)C(F)(F)F)CC1 | < 10
COc1ccc([C@H](N[C@@H](CC(F)(F)CC2CC2)C(=O)NC2(C#N)CC2)C(F)(F)F)cc1 | < 10
N#CC1(NC(=O)[C@H](CC(F)(F)CC2CC2)N[C@@H](c2ccc(F)c(F)c2)C(F)(F)F)CC1 | < 10
N#CC1(NC(=O)[C@H](CC(F)(F)CC2CC2)N[C@@H](c2ccc(C(F)(F)F)cc2)C(F)(F)F)CC1 | < 10

Each molecule was assayed against T1, Human cathepsin S (assay: Cathepsin S Assay (Z-Val-Val-Arg-AMC hydrolysis)). Settings: Table 1.
Format: biochemical
Experimental: Solutions of test compounds in varying concentrations were prepared in 10 μL of dimethyl sulfoxide (DMSO) and then diluted into assay buffer (40 μL, comprising: MES, 50 mM (pH 6.5); EDTA, 2.5 mM; and NaCl, 100 mM); β-mercaptoethanol, 2.5 mM; and BSA, […]. Human cathepsin S (0.05 pMoles in 25 μL of assay buffer) was added to the dilutions. The assay solutions were mixed for 5-10 seconds on a shaker plate, covered and incubated for 30 min at room temperature. Z-Val-Val-Arg-AMC (4 nMoles in 25 μL of assay buffer containing 10% DMSO) was added to the assay solutions and hydrolysis was followed spectrophotometrically (at λ 460 nm) for 5 min. Apparent inhibition constants (Ki) were calculated from the enzyme progress curves using standard mathematical models.

SMILES | Ki [nM]
CCC(F)(F)C[C@H](N[C@@H](c1ccc(F)cc1)C(F)(F)F)C(=O)NC1(C#N)CC1 [drawing 30] | < 10
CC(C)CC(F)(F)C[C@H](N[C@@H](c1ccc(F)cc1)C(F)(F)F)C(=O)NC1(C#N)CC1 [drawing 31] | < 10
CCCC(F)(F)C[C@H](N[C@@H](c1ccc(F)cc1)C(F)(F)F)C(=O)NC1(C#N)CC1 [drawing 32] | < 10
CCCCC(F)(F)C[C@H](N[C@@H](c1ccc(F)cc1)C(F)(F)F)C(=O)NC1(C#N)CC1 [drawing 33] | < 10

Same assay, conditions: Table 3

SMILES | Ki [nM]
N#CC1(NC(=O)[C@H](CC(F)(F)Cc2ccccc2)N[C@@H](c2ccc(F)cc2)C(F)(F)F)CC1 | < 20
N#CC1(NC(=O)[C@H](CC(F)(F)c2ccccc2)N[C@@H](c2ccc(F)cc2)C(F)(F)F)CC1 | < 20
N#CC1(NC(=O)[C@H](CC(F)(F)CC2CC2)N[C@@H](c2ccc(F)cc2)C(F)(F)F)CC1 | < 20
CCC(F)(F)CC[C@H](N[C@@H](c1ccc(F)cc1)C(F)(F)F)C(=O)NC1(C#N)CC1 | < 20
CC(C)CC(F)(F)C[C@H](N[C@@H](c1ccc(F)cc1)C(F)(F)F)C(=O)NC1(C#N)CC1 [drawing 40] | < 20
CCC(F)(F)C[C@H](N[C@@H](c1ccc(F)cc1)C(F)(F)F)C(=O)NC1(C#N)CC1 [drawing 42] | < 20
CCCC(F)(F)C[C@H](N[C@@H](c1ccc(F)cc1)C(F)(F)F)C(=O)NC1(C#N)CC1 [drawing 43] | < 20
CCCCC(F)(F)C[C@H](N[C@@H](c1ccc(F)cc1)C(F)(F)F)C(=O)NC1(C#N)CC1 [drawing 44] | < 20

Same assay, conditions: text statement for drawn compounds

SMILES | Ki [nM]
CC(C)CS(=O)(=O)C[C@H](N[C@@H](c1ccc(F)cc1)C(F)(F)F)C(=O)NC1(C#N)CC1 | < 10
